For nine compounds, Kd results are on record in patent US20250296959A1, “B7-H3 TARGETING PEPTIDES AND CONSTRUCTS THEREOF” (Mariana Oncology Inc., priority 2024, published 2025).

pKd: −log10 of the molar value. Starred links: 1 amine or outer side, 2 acyl side, 3 side chain; linkers in the order of their positions; H or OH if unused. Positions of bridges follow the written chain, without caps; N, C: chain ends. Non-standard residues stand in square brackets, D forms with d. Residues, ends and D or L forms follow the SMILES beside them. *: point of attachment. Ala(piperidin-4-yl) = O=C([C@H](CC1CCN([*:3])CC1)N[*:1])[*:2]; DOTA = O=C(O)CN1CCN(CC(=O)O)CCN(CC(=O)*)CCN(CC(=O)O)CC1; Trp(5-F) = N[C@@H](Cc1c[nH]c2ccc(F)cc12)C(=O)O; Pro(trans-4-F) = O=C(O)[C@@H]1C[C@@H](F)CN1; 1Nal = N[C@@H](Cc1cccc2ccccc12)C(=O)O; Ala(4-THP) = N[C@@H](CC1CCOCC1)C(=O)O; X3 = O=C([C@H](CCC1CCC1)N[*:1])[*:2]; Val(3-OH) = CC(C)(O)[C@H](N)C(=O)O; aIle = CC[C@@H](C)[C@H](N)C(=O)O; 4Pal = N[C@@H](Cc1ccncc1)C(=O)O; Chg = N[C@H](C(=O)O)C1CCCCC1; Tle = CC(C)(C)[C@H](N)C(=O)O; hLeu = CC(C)CC[C@H](N)C(=O)O; Pip = O=C(O)[C@@H]1CCCCN1; Nle = CCCC[C@H](N)C(=O)O; Dap = NC[C@H](N)C(=O)O

This test addresses T1, human 4lg B7-H3 (Homo sapiens, UniProt Q5ZPR3).
T1 sequence (Q5ZPR3 29-534): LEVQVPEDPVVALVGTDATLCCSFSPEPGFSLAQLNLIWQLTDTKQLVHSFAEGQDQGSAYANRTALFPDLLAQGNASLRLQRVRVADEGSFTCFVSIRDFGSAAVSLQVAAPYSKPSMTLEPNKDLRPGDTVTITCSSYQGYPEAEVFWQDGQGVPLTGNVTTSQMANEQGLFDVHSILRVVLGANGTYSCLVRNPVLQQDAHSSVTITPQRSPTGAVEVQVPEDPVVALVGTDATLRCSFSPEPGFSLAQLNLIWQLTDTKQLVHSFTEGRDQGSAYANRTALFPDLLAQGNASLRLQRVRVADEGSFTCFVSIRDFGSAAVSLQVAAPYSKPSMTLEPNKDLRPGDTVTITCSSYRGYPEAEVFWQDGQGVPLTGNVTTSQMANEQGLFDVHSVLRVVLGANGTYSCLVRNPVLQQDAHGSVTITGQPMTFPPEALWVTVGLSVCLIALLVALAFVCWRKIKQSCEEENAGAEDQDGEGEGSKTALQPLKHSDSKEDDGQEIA
Description: Affinity determination by surface plasmon resonance (SPR) to 4Ig B7-H3. The settings on record: 4Ig B7-H3. For orientation: Surface plasmon resonance follows binding to a sensor surface in real time, without labels.

Where [1] appears, read: SPR KD—25° C., 25° C. flow cell temperature.
Where [2] appears, read: SPR KD—37° C., 37° C. flow cell temperature.

In general, pKd refers to the Kd on a negative log10 scale, so that one unit is a factor of ten. A high value points to a low Kd. Turning to `CC[C@@H](C)[C@@H]1NC(=O)[C@H](CC(=O)O)NC(=O)[C@H](Cc2ccc(O)cc2)NC(=O)[C@H](CCCCN)NC(=O)CNC(=O)[C@H](C(C)C)NC(=O)[C@@H](NC(=O)[C@H](Cc2ccc(O)cc2)NC(=O)[C@H](CCC(C)C)NC(C)=O)CSSC[C@@H](C(=O)N[C@@H](Cc2c[nH]c3ccccc23)C(=O)N[C@@H](Cc2ccccc2)C(=O)N[C@H](C(=O)N[C@H](CCCCNC(=O)CN2CCN(CC(=O)O)CCN(CC(=O)O)CCN(CC(=O)O)CC2)C(N)=O)[C@@H](C)O)NC(=O)[C@H](Cc2ccc(O)cc2)NC1=O` [compound 126, Ac-hLeu-Y-C-V-G-K-Y-D-allolle-Y-C-W-F-Thr-dLys(DOTA)-CONH2] (Ac-[hLeu]YCVGKYD[aIle]YCWFT[dK](DOTA)-NH2; disulfide 3-11), under setting [1], the negative-log Kd (pKd) is > 9.00. `CC(=O)N[C@@H](CCC(C)C)C(=O)N[C@@H](Cc1ccc(O)cc1)C(=O)N[C@H]1CSSC[C@@H](C(=O)N[C@@H](Cc2cccc3ccccc23)C(=O)N[C@@H](Cc2ccccc2)C(=O)N2C[C@H](F)C[C@H]2C(=O)O)NC(=O)[C@H](Cc2ccc(O)cc2)NC(=O)[C@H](C(C)C)NC(=O)[C@H](CC(=O)O)NC(=O)[C@H](Cc2ccncc2)NC(=O)[C@H](CCCCNC(=O)CN2CCN(CC(=O)O)CCN(CC(=O)O)CCN(CC(=O)O)CC2)NC(=O)CNC(=O)[C@H](C(C)(C)C)NC1=O` [compound 264, Ac-hLeu-Y-C-Tbg-G-Lys(DOTA)-4PyA-D-V-Y-C-1Nal-F-trans4FPro-CONH2] (Ac-[hLeu]YC[Tle]GK(DOTA)[4Pal]DVYC[1Nal]F[Pro(trans-4-F)]-OH; disulfide 3-11): the pKd under setting [1] was 8.00 to 9.00. Still for that read-out and setting: next, `CCCC[C@H](NC(C)=O)C(=O)N[C@@H](Cc1ccc(O)cc1)C(=O)N[C@H]1CSSC[C@@H](C(=O)N[C@@H](Cc2c[nH]c3ccccc23)C(=O)N[C@@H](Cc2ccccc2)C(=O)N[C@H](C(=O)N[C@H](CCCCNC(=O)CN2CCN(CC(=O)O)CCN(CC(=O)O)CCN(CC(=O)O)CC2)C(N)=O)[C@@H](C)O)NC(=O)[C@H](Cc2ccc(O)cc2)NC(=O)[C@H](C2CCCCC2)NC(=O)[C@H](CC(=O)O)NC(=O)[C@H](Cc2ccc(O)cc2)NC(=O)[C@H](CCCCN)NC(=O)CNC(=O)[C@H](C(C)C)NC1=O` [compound 55, Ac-Nle-Y-C-V-G-K-Y-D-ChG-Y-C-W-F-Thr-dLys(DOTA)-CONH2] (Ac-[Nle]YCVGKYD[Chg]YCWFT[dK](DOTA)-NH2; disulfide 3-11): 8.00 to 9.00; `CC(=O)N[C@@H](CCC(C)C)C(=O)N[C@@H](Cc1ccc(O)cc1)C(=O)N[C@H]1CSSC[C@@H](C(=O)N[C@@H](Cc2cccc3ccccc23)C(=O)N[C@@H](Cc2ccccc2)C(=O)N2CCCC[C@H]2C(=O)O)NC(=O)[C@H](Cc2ccc(O)cc2)NC(=O)[C@H](C(C)C)NC(=O)[C@H](CC(=O)O)NC(=O)[C@H](Cc2ccncc2)NC(=O)[C@H](CCCCNC(=O)CN2CCN(CC(=O)O)CCN(CC(=O)O)CCN(CC(=O)O)CC2)NC(=O)CNC(=O)[C@H](C(C)(C)C)NC1=O` [compound 265, Ac-hLeu-Y-C-Tbg-G-Lys(DOTA)-4PyA-D-V-Y-C-1Nal-F-Pip acid-CONH2] (Ac-[hLeu]YC[Tle]GK(DOTA)[4Pal]DVYC[1Nal]F[Pip]-OH; disulfide 3-11): 7.00 to 8.00. For the compound `CC(=O)N[C@@H](CCC(C)C)C(=O)N[C@@H](Cc1ccc(O)cc1)C(=O)N[C@H]1CSSC[C@@H](C(=O)N[C@@H](Cc2c[nH]c3ccc(F)cc23)C(=O)N[C@@H](Cc2ccccc2)C(=O)N[C@H](C(=O)N[C@H](CCCCNC(=O)CN2CCN(CC(=O)O)CCN(CC(=O)O)CCN(CC(=O)O)CC2)C(=O)O)C(C)(C)O)NC(=O)[C@H](Cc2ccc(O)cc2)NC(=O)[C@H](C(C)C)NC(=O)[C@H](CC(=O)O)NC(=O)[C@H](CC2CCOCC2)NC(=O)[C@H](CN)NC(=O)CNC(=O)[C@H](C(C)(C)C)NC1=O` [compound 372, Ac-hLeu-Y-C-Tbg-G-Dap-ThpA-D-V-Y-C-5FW-F-hydroxyVal-dLys(DOTA)-COOH] (Ac-[hLeu]YC[Tle]G[Dap][Ala(4-THP)]DVYC[Trp(5-F)]F[Val(3-OH)][dK](DOTA)-OH; disulfide 3-11), under setting [2], the pKd was > 9.00. On to `CC(=O)N[C@@H](CCC1CCC1)C(=O)N[C@@H](Cc1ccc(O)cc1)C(=O)N[C@H]1CSSC[C@@H](C(=O)N[C@@H](Cc2c[nH]c3ccc(F)cc23)C(=O)N[C@@H](Cc2ccccc2)C(=O)N[C@H](C(=O)N[C@H](CCCCNC(=O)CN2CCN(CC(=O)O)CCN(CC(=O)O)CCN(CC(=O)O)CC2)C(=O)O)C(C)(C)O)NC(=O)[C@H](Cc2ccc(O)cc2)NC(=O)[C@H](C(C)C)NC(=O)[C@H](CC(=O)O)NC(=O)[C@H](CC2CCOCC2)NC(=O)[C@H](CC2CCNCC2)NC(=O)CNC(=O)[C@H](C(C)(C)C)NC1=O` [compound 443, Ac-hCba-Y-C-Tbg-G-PipAla-ThpA-D-V-Y-C-5FW-F-hydroxyVal-dLys(DOTA)-COOH] (Ac-[X3]YC[Tle]G[Ala(piperidin-4-yl)][Ala(4-THP)]DVYC[Trp(5-F)]F[Val(3-OH)][dK](DOTA)-OH; disulfide 3-11), for which the negative-log Kd (pKd) under setting [2] was > 9.00. The compound `CC(=O)N[C@@H](CCC(C)C)C(=O)N[C@@H](Cc1ccc(O)cc1)C(=O)N[C@H]1CSSC[C@@H](C(=O)N[C@@H](Cc2c[nH]c3ccc(F)cc23)C(=O)N[C@@H](Cc2ccccc2)C(=O)N[C@H](C(=O)N[C@H](CCCCNC(=O)CN2CCN(CC(=O)O)CCN(CC(=O)O)CCN(CC(=O)O)CC2)C(=O)O)C(C)(C)O)NC(=O)[C@H](Cc2ccc(O)cc2)NC(=O)[C@H]([C@@H](C)O)NC(=O)[C@H](CC(=O)O)NC(=O)[C@H](CC2CCOCC2)NC(=O)[C@H](CCCCN)NC(=O)CNC(=O)[C@H](C(C)(C)C)NC1=O` [compound 377, Ac-hLeu-Y-C-Tbg-G-K-ThpA-D-Thr-Y-C-5FW-F-hydroxyVal-dLys(DOTA)-COOH] (Ac-[hLeu]YC[Tle]GK[Ala(4-THP)]DTYC[Trp(5-F)]F[Val(3-OH)][dK](DOTA)-OH; disulfide 3-11) showed a pKd under setting [2] of 7.00 to 8.00. With `CCCC[C@H](NC(C)=O)C(=O)N[C@@H](Cc1ccc(O)cc1)C(=O)N[C@H]1CSSC[C@@H](C(=O)N[C@@H](Cc2c[nH]c3ccccc23)C(=O)N[C@@H](Cc2ccccc2)C(=O)N[C@H](C(=O)N[C@H](CCCCNC(=O)CN2CCN(CC(=O)O)CCN(CC(=O)O)CCN(CC(=O)O)CC2)C(=O)O)[C@@H](C)O)NC(=O)[C@H](Cc2ccc(O)cc2)NC(=O)[C@H](C(C)C)NC(=O)[C@H](CC(=O)O)NC(=O)[C@H](Cc2ccc(O)cc2)NC(=O)[C@H](CCCCN)NC(=O)CNC(=O)[C@H](C(C)C)NC1=O` [compound 28, Ac-Nle-Y-C-V-G-K-Y-D-V-Y-C-W-F-Thr-dLys(DOTA)-COOH] (Ac-[Nle]YCVGKYDVYCWFT[dK](DOTA)-OH; disulfide 3-11), the pKd by setting is: under setting [1], 8.00 to 9.00; under setting [2], 8.00 to 9.00. With `CC(=O)N[C@@H](CCC(C)C)C(=O)N[C@@H](Cc1ccc(O)cc1)C(=O)N[C@H]1CSSC[C@@H](C(=O)N[C@@H](Cc2c[nH]c3ccc(F)cc23)C(=O)N[C@@H](Cc2ccccc2)C(=O)N[C@H](C(=O)N[C@H](CCCCNC(=O)CN2CCN(CC(=O)O)CCN(CC(=O)O)CCN(CC(=O)O)CC2)C(=O)O)[C@@H](C)O)NC(=O)[C@H](Cc2ccc(O)cc2)NC(=O)[C@H](C(C)C)NC(=O)[C@H](CC(=O)O)NC(=O)[C@H](CC2CCOCC2)NC(=O)[C@H](CCCCN)NC(=O)CNC(=O)[C@H](C(C)(C)C)NC1=O` [compound 332, Ac-hLeu-Y-C-Tbg-G-K-ThpA-D-V-Y-C-5FW-F-Thr-dLys(DOTA)-COOH] (Ac-[hLeu]YC[Tle]GK[Ala(4-THP)]DVYC[Trp(5-F)]FT[dK](DOTA)-OH; disulfide 3-11), the pKd under setting [1] was > 9.00.
